Tests used:
Experiment in all cases: In vitro antibacterial evaluation: minimum inhibitory concentration (MIC), broth dilution method
Format in all cases: cell-based
Staphylococcus sp. = conditions: 18 hours at 35° C.
How it was run: (§1)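 NCCLS M7-A2 broth dilution with Mueller-Hinton II, testing 64-0.06 μg/mL antibiotic against 5×10^5 CFU/mL inocula. Test strains include recent methicillin-, penicillin- or vancomycin-resistant clinical isolates. MIC is the lowest concentration preventing growth.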

Enterococcus sp. = tested on: Enterococcus sp.
How it was run: as §1

Escherichia coli [1] = tested on: Escherichia coli
How it was run: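 Values are minimum inhibitory concentrations, meaning the smallest antibiotic concentration that stops growth of the organism. They come from broth dilution in Muller-Hinton II […] per NCCLS guidance (M7-A2), using 5×10^5 CFU/mL and concentrations from 64 to 0.06 μg/mL.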

Escherichia coli [2] = tested on: Escherichia coli; remark: listed apart in the source

CC(C)CC(=O)OC1C(O)C(CO)OC(OC2C(CO)OC(Oc3ccc(CC4NC(=O)C(C(C)c5cccs5)NC(=O)CNC(=O)C(CO)NC(=O)C(C(O)C5CNC(=N)N5C5OC(CO)C(O)C(O)C5O)NC(=O)C(C(O)C5CNC(=N)N5)NC4=O)cc3)C(O)C2O)C1O (stereo not drawn) [Example 265b]
64 µg/mL: MIC Enterococcus avium (GC 4558) (Enterococcus sp.; Enterococcus avium (GC 4558)) | MIC Enterococcus faecalis (ATCC 29212) (Enterococcus sp.; Enterococcus faecalis (ATCC 29212)) | MIC Enterococcus faecalis (GC 4553) (Enterococcus sp.; Enterococcus faecalis (GC 4553)) | MIC Enterococcus faecium (GC 2243) (Enterococcus sp.; Enterococcus faecium (GC 2243)) | MIC Enterococcus faecium (GC 4556) (Enterococcus sp.; Enterococcus faecium (GC 4556)) | MIC Enterococcus faecalis (GC 2691) (Enterococcus sp.; broth dilution, 18 hours at 35° C., strain GC 2691) | MIC Escherichia coli (GC 4559) (Escherichia coli [1]; Escherichia coli (GC 4559))
>64 µg/mL: MIC Enterococcus faecalis (GC 4554) (Enterococcus sp.; Enterococcus faecalis (GC 4554)) | MIC Escherichia coli (ATCC 25922) (Escherichia coli [2])
8 µg/mL: MIC Coagulase Negative Staphylococcus (GC 4547) (Staphylococcus sp.) | MIC Coagulase Negative Staphylococcus (GC 4547) (Staphylococcus sp.; broth dilution) | MIC Coagulase Negative Staphylococcus (GC 4551) (Staphylococcus sp.) | MIC Coagulase Negative Staphylococcus (GC 4551) (Staphylococcus sp.; broth dilution) | MIC Staphylococcus aureus (GC 4541) (Staphylococcus sp.) | MIC Staphylococcus aureus (GC 4541) (Staphylococcus sp.; broth dilution) | MIC Staphylococcus aureus (GC 4542) (Staphylococcus sp.) | MIC Staphylococcus aureus (GC 4542) (Staphylococcus sp.; broth dilution) | MIC Staphylococcus aureus (GC 4544) (Staphylococcus sp.) | MIC Staphylococcus aureus (GC 4544) (Staphylococcus sp.; broth dilution) | MIC Staphylococcus aureus (GC 4545) (Staphylococcus sp.) | MIC Staphylococcus aureus (GC 4545) (Staphylococcus sp.; broth dilution) | MIC Staphylococcus aureus-SMITH (GC 4543) (Staphylococcus sp.) | MIC Staphylococcus aureus-SMITH (GC 4543) (Staphylococcus sp.; broth dilution) | MIC Staphylococcus haemolyticus (GC 4546) (Staphylococcus sp.) | MIC Staphylococcus haemolyticus (GC 4546) (Staphylococcus sp.; broth dilution) | MIC Enterococcus faecium (GC 4557) (Enterococcus sp.; Enterococcus faecium (GC 4557))
4 µg/mL: MIC Coagulase Negative Staphylococcus (GC 4548) (Staphylococcus sp.) | MIC Coagulase Negative Staphylococcus (GC 4548) (Staphylococcus sp.; broth dilution) | MIC Coagulase Negative Staphylococcus (GC 4549) (Staphylococcus sp.) | MIC Coagulase Negative Staphylococcus (GC 4549) (Staphylococcus sp.; broth dilution) | MIC Enterococcus faecalis (GC 2242) (Enterococcus sp.; broth dilution, 18 hours at 35° C., strain GC 2242) | MIC Escherichia coli (GC 4560) (Escherichia coli [1]; Escherichia coli (GC 4560))
16 µg/mL: MIC Staphylococcus aureus (ATCC 29213) (Staphylococcus sp.) | MIC Staphylococcus aureus (ATCC 29213) (Staphylococcus sp.; broth dilution)
32 µg/mL: MIC Staphylococcus aureus (GC 1131) (Staphylococcus sp.) | MIC Staphylococcus aureus (GC 1131) (Staphylococcus sp.; broth dilution)
